One assay has as its target NRP-1 (Homo sapiens, UniProt O14786). Put plainly: Direct binding of Leptin to NRP-1 by HTRF and confocal microscopy. From the text: NRP-1 has been reported to bind directly VEGF increasing thus the binding affinity of VEGF to its receptor VEGFR2 […] and Sema3A enabling thus its binding to Plexin 3A. Our study led us to highlight a new mechanism of NRP-1 function. […] NRP-1 repression by siNRP-1 decreased the BRET signal and OBR oligomerization.

Assay [1] has as its system MDA-MB-231 and T47D-NRP-1. Description: In vitro cell proliferation (MTT, (H3)-thymidine, BrdU incorporation). The class given is cell-based, human. The conditions noted are these: Leptin stimulation. The source says:
(§1) First MBA-MB-231 and T47D breast cancer cells line were selected for their high and undetectable NRP-1 expression respectively and the expression of Leptin receptor (OBR). In order to investigate NRP-1 and Leptin association in breast cancer cell line migration, we proceeded to NRP-1 expression silencing in MDA-MB-231 using either siRNA or shRNA approaches or NRP-1 overexpression in T47D. […] In contrast Leptin induced MDA-MB-231 migration that was decreased in siNRP-1 conditions. The in vitro data were confirmed in vivo by MDA-MB-231 and T47D xenografts in Nude mice. Modulation of NRP-1 expression either by shRNA silencing in MDA-MB-231 or by overexpression in T47D induced an increase of proliferation and a decrease of lymph node infiltration by MDA-MB-231-shNRP-1 and a decrease of proliferation and an increase of lymph node infiltration by T47D-NRP-1-RFP in mice treated with Leptin.
This observation can lead to conclude that NRP-1 induces tumor growth independently of Leptin/OBR pathway and that NRP-1/OBR complex signaling is in a favor of cell movement and migration induction. The implication of Leptin in tumor growth and metastasis has already been studied but the published data are contradictory depending on cancer cell type and model studies. […] In our case, in vitro leptin implication in cell growth has been evaluated by different methods. […]

Assay [2] deals with MDA-MB-231-shNRP-1 xenografts. Description: MDA-MB-231 xenografts in Nude mice. The class given is in vivo. The conditions noted are these: Leptin treatment, KL1 staining.
Text: as §1
This need to be more investigated and may be a new strategy for combined anti-Leptin and anti-VEGF therapies in breast cancer. […] In vitro and in vivo data are a direct evidence of NRP-1 and Leptin association in breast cancer cell line migration. This implication of Leptin and NRP-1 are in agreement of published data but with no association between Leptin and NRP-1.

“Also recorded” adds a separate entry of the source.

As for “Leptin: small non glycosylated protein, ligand of OBR”, in the assay with NRP-1, the “direct binding to NRP-1” value is recorded as “unable to bind directly”. For the same substance, in assay [1], the cell proliferation result is given as “decreased; also recorded: unable to observe; also recorded: not able to observe a significant increase”. Also, in assay [2], the “lymph node infiltration by MDA-MB-231-shNRP-1” value is given as “did not increase”.

(Values after patent US11629192B2, “Methods and pharmaceutical compositions for the treatment of diseases mediated by the NRP-1/OBR complex signaling pathway” (INSERM (Institut National de la Sante et de la Recherche …, priority 2014, dated 2023).)
